Experimental data published in article PMC3923778 (PLoS Currents, 2014).
“Also recorded” adds a separate entry of the source.

Experiments:
R6/2 mice [1] = assay: Chronic oral dosing in the R6/2 mouse model, overall disease progression; format: in vivo; settings: chronic oral administration, 10 or 30 mg/kg BID p.o. from 4 weeks
Method: All animal experiments were carried out according to the National Institute of Health (NIH) guidelines for the care and use of laboratory animals, and approved by the National Laboratory Animal Board, Finland. 60 male and female R6/2 TG mice (R6/2J CAG 120 and 12 male and female wild-type littermate control mice were bred at National Animal Facility Center, Kuopio, Finland.
Mice were housed in groups of 4 and separated by sexes. In each cage, one wild-type mouse of the same sex, but different litter, was included in an attempt to provide normal social stimulation. Mice were allowed to acclimate to the experimental room for at least one hour prior to the beginning of any experiment. Mice were transported from the colony room to experimental rooms in their home cages. Experimentation was conducted in a blinded manner. Tail samples were taken at the end of the study for verification of genotypes and CAG sizes of individual mice.
(§1) All values are presented as mean ± Standard Error of Mean (SEM), and differences are considered to be statistically significant at the p < 0.05 level. Statistical analysis was performed using StatsDirect statistical software. Differences between group means were analyzed by 1-way-ANOVA followed by Dunnett’s test (comparison to the control (=vehicle treated TG mice) group). The acquisition of the Cued two-choice swim test was analyzed using Fisher’s exact test.

R6/2 mice [2] = assay: Open Field Test; format: in vivo, mouse; set-up: key to Open Field Total Distance: direction of significant change vs Vehicle-treated R6/2 mice / Open Field Center Distance: direction of significant change vs Vehicle-treated R6/2 mice: ▲: significant enhancement compared to Vehicle-treated R6/2 mice (One-way ANOVA, Dunnett’s post-hoc); ▼: significant impairment compared to Vehicle-treated R6/2 mice (One-way ANOVA, Dunnett’s post-hoc)
Method: Motor function testing including open field and rear climbing tests were commenced at 4 weeks of age and continued at weeks 6, 8 and 12, for grip strength test at age weeks 4 and 12 and for rotarod at age weeks 4, 6 and 8. Compound treatment was started at 4 weeks of age after the baseline behavioral tests.
Open field test was performed at age weeks 4, 6, 8 and 12. The mice were tested on Mondays at approximately 10-30 lux of red light. The mice were brought to the experimental room for at least 1 h acclimation to the experimental room conditions prior to testing. Activity chambers (Med Associates Inc., St Albans, VT; 27 x 27 x 20.3 cm) are equipped with IR beams. Mice were placed in the center of the chamber and their behavior was recorded for 30 min in 5-minute bins. Quantitative analysis was performed on the following five dependent measures: total locomotion, locomotion in the center of the open field, rearing rate in the center, total rearing frequency and velocity.
as §1

[3] = Body weight during chronic dosing in R6/2 mice; format: in vivo, mouse; settings: BID, ANOVA
Method: Body weight was measured starting at the age of 4 weeks and a further two times per week on the same day until the end of the study. This was done just prior to animals receiving doses for those days.
as §1

[4] = Age Week 4, 10 mg/kg p.o., BID, ANOVA
[5] = Age Week 4, 30 mg/kg p.o., BID, ANOVA
[6] = Age Week 6, 10 mg/kg p.o., BID, ANOVA
[7] = Age Week 6, 30 mg/kg p.o., BID, ANOVA
[8] = Age Week 8, 10 mg/kg p.o., BID, ANOVA
[9] = Age Week 8, 30 mg/kg p.o., BID, ANOVA
[10] = Age Week 12, 10 mg/kg p.o., BID
[11] = Age Week 12, 10 mg/kg p.o., BID, ANOVA
[12] = Age Week 12, 30 mg/kg p.o., BID
[13] = Age Week 12, 30 mg/kg p.o., BID, ANOVA

CN1C(=O)c2nc(Cc3ccc(C(F)(F)F)cc3)[nH]c2N2C1=N[C@H]1CCC[C@H]12 [SCH-51866, (+)-cis-5,6a,7,8,9,9a-hexahydro-2-[4-[trifluro-methyl]phenylmethyl]-5-methyl-cylopent[4,5]imidazo [2,1-b]purin-4(3H)one]
effect on R6/2 disease progression / disease-related phenotypes (R6/2 mice [1]): did not ameliorate disease progression; also recorded: did not modify any R6/2 disease-related phenotypes | Open Field Average Velocity: p vs Vehicle-treated R6/2 mice (R6/2 mice [2]; [4]): ANOVA: p=0.461 | Open Field Center Distance: p vs Vehicle-treated R6/2 mice (R6/2 mice [2]; [4]): ANOVA: p=0.701 | Open Field Rearing Rate in Center: p vs Vehicle-treated R6/2 mice (R6/2 mice [2]; [4]): ANOVA: p=0.341 | Open Field Total Distance: p vs Vehicle-treated R6/2 mice (R6/2 mice [2]; [4]): ANOVA: p=0.792 | Open Field Total Rearing Frequency: p vs Vehicle-treated R6/2 mice (R6/2 mice [2]; [4]): ANOVA: p=0.542 | Open Field Average Velocity: p vs Vehicle-treated R6/2 mice (R6/2 mice [2]; [5]): ANOVA: p=0.461 | Open Field Center Distance: p vs Vehicle-treated R6/2 mice (R6/2 mice [2]; [5]): ANOVA: p=0.701 | Open Field Rearing Rate in Center: p vs Vehicle-treated R6/2 mice (R6/2 mice [2]; [5]): ANOVA: p=0.341 | Open Field Total Distance: p vs Vehicle-treated R6/2 mice (R6/2 mice [2]; [5]): ANOVA: p=0.792 | Open Field Total Rearing Frequency: p vs Vehicle-treated R6/2 mice (R6/2 mice [2]; [5]): ANOVA: p=0.542 | Open Field Average Velocity: p vs Vehicle-treated R6/2 mice (R6/2 mice [2]; [6]): ANOVA: p=0.686 | Open Field Center Distance: p vs Vehicle-treated R6/2 mice (R6/2 mice [2]; [6]): ANOVA: p=0.305 | Open Field Rearing Rate in Center: p vs Vehicle-treated R6/2 mice (R6/2 mice [2]; [6]): ANOVA: p=0.594 | Open Field Total Distance: p vs Vehicle-treated R6/2 mice (R6/2 mice [2]; [6]): ANOVA: p=0.101 | Open Field Total Rearing Frequency: p vs Vehicle-treated R6/2 mice (R6/2 mice [2]; [6]): ANOVA: p=0.639 | Open Field Average Velocity: p vs Vehicle-treated R6/2 mice (R6/2 mice [2]; [7]): ANOVA: p=0.686 | Open Field Center Distance: p vs Vehicle-treated R6/2 mice (R6/2 mice [2]; [7]): ANOVA: p=0.305 | Open Field Rearing Rate in Center: p vs Vehicle-treated R6/2 mice (R6/2 mice [2]; [7]): ANOVA: p=0.594 | Open Field Total Distance: p vs Vehicle-treated R6/2 mice (R6/2 mice [2]; [7]): ANOVA: p=0.101 | Open Field Total Rearing Frequency: p vs Vehicle-treated R6/2 mice (R6/2 mice [2]; [7]): ANOVA: p=0.639 | Open Field Average Velocity: p vs Vehicle-treated R6/2 mice (R6/2 mice [2]; [8]): ANOVA: p=0.138 | Open Field Center Distance: p vs Vehicle-treated R6/2 mice (R6/2 mice [2]; [8]): ANOVA: p=0.693 | Open Field Rearing Rate in Center: p vs Vehicle-treated R6/2 mice (R6/2 mice [2]; [8]): ANOVA: p=0.519 | Open Field Total Distance: p vs Vehicle-treated R6/2 mice (R6/2 mice [2]; [8]): ANOVA: p=0.333 | Open Field Total Rearing Frequency: p vs Vehicle-treated R6/2 mice (R6/2 mice [2]; [8]): ANOVA: p=0.395 | Open Field Average Velocity: p vs Vehicle-treated R6/2 mice (R6/2 mice [2]; [9]): ANOVA: p=0.138 | Open Field Center Distance: p vs Vehicle-treated R6/2 mice (R6/2 mice [2]; [9]): ANOVA: p=0.693 | Open Field Rearing Rate in Center: p vs Vehicle-treated R6/2 mice (R6/2 mice [2]; [9]): ANOVA: p=0.519 | Open Field Total Distance: p vs Vehicle-treated R6/2 mice (R6/2 mice [2]; [9]): ANOVA: p=0.333 | Open Field Total Rearing Frequency: p vs Vehicle-treated R6/2 mice (R6/2 mice [2]; [9]): ANOVA: p=0.395 | Open Field Center Distance: p vs Vehicle-treated R6/2 mice (R6/2 mice [2]; [10]): p=0.112 | Open Field Total Distance: p vs Vehicle-treated R6/2 mice (R6/2 mice [2]; [10]): p=0.454 | Open Field Average Velocity: p vs Vehicle-treated R6/2 mice (R6/2 mice [2]; [11]): ANOVA: p=0.197 | Open Field Rearing Rate in Center: p vs Vehicle-treated R6/2 mice (R6/2 mice [2]; [11]): ANOVA: p=0.423 | Open Field Total Rearing Frequency: p vs Vehicle-treated R6/2 mice (R6/2 mice [2]; [11]): ANOVA: p=0.703 | Open Field Center Distance: direction of significant change vs Vehicle-treated R6/2 mice (R6/2 mice [2]; [12]): ▼ | Open Field Center Distance: p vs Vehicle-treated R6/2 mice (R6/2 mice [2]; [12]): 0.012 | Open Field Total Distance: direction of significant change vs Vehicle-treated R6/2 mice (R6/2 mice [2]; [12]): ▼ | Open Field Total Distance: p vs Vehicle-treated R6/2 mice (R6/2 mice [2]; [12]): 0.016 | Open Field Average Velocity: p vs Vehicle-treated R6/2 mice (R6/2 mice [2]; [13]): ANOVA: p=0.197 | Open Field Rearing Rate in Center: p vs Vehicle-treated R6/2 mice (R6/2 mice [2]; [13]): ANOVA: p=0.423 | Open Field Total Rearing Frequency: p vs Vehicle-treated R6/2 mice (R6/2 mice [2]; [13]): ANOVA: p=0.703 | Open field total distance traveled, distance in center, total rear frequency, average velocity, effect in words (R6/2 mice [2]; chronic administration in R6/2 mice): no improvement | performance in open field evaluation, effect in words (R6/2 mice [2]; highest dose group, 12 weeks of age): modest but significant worsening of performance | Body Weight: p vs Vehicle-treated R6/2 mice ([3]; Age Week 4, 10 mg/kg p.o.): ANOVA: p=0.878 | Body Weight: p vs Vehicle-treated R6/2 mice ([3]; Age Week 4, 30 mg/kg p.o.): ANOVA: p=0.878 | Body Weight: p vs Vehicle-treated R6/2 mice ([3]; Age Week 5, 10 mg/kg p.o.): ANOVA: p=0.762 | Body Weight: p vs Vehicle-treated R6/2 mice ([3]; Age Week 5, 30 mg/kg p.o.): ANOVA: p=0.762 | Body Weight: p vs Vehicle-treated R6/2 mice ([3]; Age Week 6, 10 mg/kg p.o.): ANOVA: p=0.934 | Body Weight: p vs Vehicle-treated R6/2 mice ([3]; Age Week 6, 30 mg/kg p.o.): ANOVA: p=0.934 | Body Weight: p vs Vehicle-treated R6/2 mice ([3]; Age Week 7, 10 mg/kg p.o.): ANOVA: p=0.766 | Body Weight: p vs Vehicle-treated R6/2 mice ([3]; Age Week 7, 30 mg/kg p.o.): ANOVA: p=0.766 | Body Weight: p vs Vehicle-treated R6/2 mice ([3]; Age Week 8, 10 mg/kg p.o.): ANOVA: p=0.926 | Body Weight: p vs Vehicle-treated R6/2 mice ([3]; Age Week 8, 30 mg/kg p.o.): ANOVA: p=0.926 | Body Weight: p vs Vehicle-treated R6/2 mice ([3]; Age Week 9, 10 mg/kg p.o.): ANOVA: p=0.886 | Body Weight: p vs Vehicle-treated R6/2 mice ([3]; Age Week 9, 30 mg/kg p.o.): ANOVA: p=0.886 | Body Weight: p vs Vehicle-treated R6/2 mice ([3]; Age Week 10, 10 mg/kg p.o.): ANOVA: p=0.969 | Body Weight: p vs Vehicle-treated R6/2 mice ([3]; Age Week 10, 30 mg/kg p.o.): ANOVA: p=0.969 | Body Weight: p vs Vehicle-treated R6/2 mice ([3]; Age Week 11, 10 mg/kg p.o.): ANOVA: p=0.891 | Body Weight: p vs Vehicle-treated R6/2 mice ([3]; Age Week 11, 30 mg/kg p.o.): ANOVA: p=0.891 | Body Weight: p vs Vehicle-treated R6/2 mice ([3]; Age Week 12, 10 mg/kg p.o.): ANOVA: p=0.774 | Body Weight: p vs Vehicle-treated R6/2 mice ([3]; Age Week 12, 30 mg/kg p.o.): ANOVA: p=0.774 | Body Weight: p vs Vehicle-treated R6/2 mice ([3]; Age Week 13, 10 mg/kg p.o.): ANOVA: p=0.855 | Body Weight: p vs Vehicle-treated R6/2 mice ([3]; Age Week 13, 30 mg/kg p.o.): ANOVA: p=0.855 | Body Weight: p vs Vehicle-treated R6/2 mice ([3]; Age Week 14, 10 mg/kg p.o.): ANOVA: p=0.878 | Body Weight: p vs Vehicle-treated R6/2 mice ([3]; Age Week 14, 30 mg/kg p.o.): ANOVA: p=0.878 | Body Weight: p vs Vehicle-treated R6/2 mice ([3]; Age Week 15, 10 mg/kg p.o.): ANOVA: p=0.989 | Body Weight: p vs Vehicle-treated R6/2 mice ([3]; Age Week 15, 30 mg/kg p.o.): ANOVA: p=0.989 | Body Weight: p vs Vehicle-treated R6/2 mice ([3]; Age Week 16, 10 mg/kg p.o.): ANOVA: p=0.651 | Body Weight: p vs Vehicle-treated R6/2 mice ([3]; Age Week 16, 30 mg/kg p.o.): ANOVA: p=0.651 | Body Weight: p vs Vehicle-treated R6/2 mice ([3]; Age Week 17, 10 mg/kg p.o.): ANOVA: p=0.817 | Body Weight: p vs Vehicle-treated R6/2 mice ([3]; Age Week 17, 30 mg/kg p.o.): ANOVA: p=0.817 | Body Weight: p vs Vehicle-treated R6/2 mice ([3]; Age Week 18, 10 mg/kg p.o.): ANOVA: p=0.644 | Body Weight: p vs Vehicle-treated R6/2 mice ([3]; Age Week 18, 30 mg/kg p.o.): ANOVA: p=0.644 | Body Weight: p vs Vehicle-treated R6/2 mice ([3]; Age Week 19, 10 mg/kg p.o.): ANOVA: p=0.975 | Body Weight: p vs Vehicle-treated R6/2 mice ([3]; Age Week 19, 30 mg/kg p.o.): ANOVA: p=0.975 | Body Weight: p vs Vehicle-treated R6/2 mice ([3]; Age Week 20, 10 mg/kg p.o.): ANOVA: p=0.900 | Body Weight: p vs Vehicle-treated R6/2 mice ([3]; Age Week 20, 30 mg/kg p.o.): ANOVA: p=0.900 | Body Weight: p vs Vehicle-treated R6/2 mice ([3]; Age Week 21, 10 mg/kg p.o.): ANOVA: p=0.996 | Body Weight: p vs Vehicle-treated R6/2 mice ([3]; Age Week 21, 30 mg/kg p.o.): ANOVA: p=0.996
